Test results taken from ChEMBL document CHEMBL1649520, “Pharmacokinetics of posaconazole administered orally or by nasogastric tube in healthy volunteers” (Antimicrob Agents Chemother, 2009).

Assays:
[1] = Tmax in healthy human at […] administered via nasogastric tube; assay type: ADME, organism-based; details: in vivo
[2] = Apparent oral clearance in healthy human at […], po; assay type: ADME, organism-based; set-up: route oral; details: in vivo
[3] = AUC (0 to infinity) in healthy human at […], po; assay type: ADME, organism-based; set-up: route oral, time infinity; details: plasma
[4] = Tmax in healthy human at 400 mg, po; details: in vivo
[5] = AUC (0 to infinity) in healthy human at […] administered via nasogastric tube; assay type: ADME, organism-based; set-up: route nasogastric, time infinity; details: plasma, po
[6] = Cmax in healthy human at […], po by ITT analysis; assay type: ADME, organism-based; set-up: route oral; details: in vivo
[7] = AUClast in healthy human at […], po by ITT analysis; assay type: ADME, organism-based; set-up: time 0 - last, route oral; details: plasma
[8] = Terminal half life in healthy human at […], po; assay type: ADME, organism-based; set-up: route oral; details: in vivo
[9] = Apparent oral clearance in healthy human at […] administered via nasogastric tube; assay type: ADME, organism-based; set-up: route oral; details: in vivo
[10] = Cmax in healthy human at 400 mg, po; details: in vivo
[11] = AUC (0 to infinity) in healthy human at […] administered via nasogastric tube by ITT analysis; assay type: ADME, organism-based; set-up: route nasogastric, time infinity; details: plasma, po
[12] = Elimination rate in healthy human at […], po; assay type: ADME, organism-based; set-up: route oral; details: in vivo
[13] = Cmax in healthy human at […] administered via nasogastric tube; assay type: ADME, organism-based; set-up: route nasogastric; details: in vivo, po
[14] = AUClast in healthy human at […] administered via nasogastric tube; assay type: ADME, organism-based; set-up: route nasogastric, time 0 - last; details: plasma, po
[15] = AUClast in healthy human at […], po; assay type: ADME, organism-based; set-up: time 0 - last, route oral; details: plasma
[16] = AUClast in healthy human at […] administered via nasogastric tube by ITT analysis; assay type: ADME, organism-based; set-up: time 0 - last, route nasogastric; details: plasma, po
[17] = Cmax in healthy human at […] administered via nasogastric tube by ITT analysis; assay type: ADME, organism-based; set-up: route nasogastric; details: in vivo, po
[18] = Terminal half life in healthy human at […] administered via nasogastric tube; assay type: ADME, organism-based; details: in vivo
[19] = Elimination rate in healthy human at […] administered via nasogastric tube; assay type: ADME, organism-based; details: in vivo
[20] = AUC (0 to infinity) in healthy human at […], po by ITT analysis; assay type: ADME, organism-based; set-up: time infinity, route oral; details: plasma

`CC[C@@H]([C@H](C)O)n1ncn(-c2ccc(N3CCN(c4ccc(OC[C@@H]5CO[C@@](Cn6cncn6)(c6ccc(F)cc6F)C5)cc4)CC3)cc2)c1=O` [POSACONAZOLE] showed a Tmax [1] of 4 h, a CL/F [2] of 822 mL/min and an AUC(0-inf) [3] of 10900 ng·h/mL. It also gave a Tmax [4] of 4 h, an AUC(0-inf) [5] of 8400 ng·h/mL and a Cmax [6] of 289 ng/mL. It also gave an AUC(0-t) [7] of 9100 ng·h/mL, a half-life [8] of 21.6 h and a CL/F [9] of 990 mL/min. For the same compound, the Cmax [10] was 324 ng/mL, the AUC(0-inf) [11] was 7210 ng·h/mL and the k el [12] was 9.72e-06 s⁻¹. For the same compound, the Cmax [13] was 266 ng/mL, the AUC(0-t) [14] was 8030 ng·h/mL and the AUC(0-t) [15] was 10400 ng·h/mL. For the same compound, the AUC(0-t) [16] was 6950 ng·h/mL, the Cmax [17] was 233 ng/mL and the half-life [18] was 23.7 h. For the same compound, the k el [19] was 8.61e-06 s⁻¹ and the AUC(0-inf) [20] was 9390 ng·h/mL.
